In patent US11512079B2, “Heterocycle substituted pyridine derivative antifungal agents” (Amplyx Pharmaceuticals, Inc., priority 2017, dated 2022):
Values after ≈ are worked out from the molar mass of the structure shown.

Assays:
Candida albicans 90028 = assay: In vitro antifungal assay (Example IX), microdilution broth, MIC; format: cell-based; conditions: minimum inhibitory concentration (≥50% inhibition), 35° C., 40-48 h, RPMI1640
Procedure, shortened: (§1)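 Yeast inocula (2.5×10^3 cells/mL, RPMI1640) were exposed to twofold compound series reaching 2-0.0019 μg/mL final, per CLSI yeast methodology. Incubation at 35° C. ran 40-48 h for Candida albicans 90028 and 72 h for Cryptococcus neoformans H99. MIC endpoints were confirmed by absorbance at 600 nm.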

[1] = tested on: Cryptococcus neoformans H99; assay: as above; format: cell-based; conditions: minimum inhibitory concentration (≥50% inhibition), 35° C., 72 h, RPMI1640
Procedure, shortened: as §1

[2] = tested on: Aspergillus fumigatus MYA3626; assay: In vitro antifungal assay (Example IX), microdilution broth, MEC; format: cell-based; conditions: minimum effective concentration (shortening of hyphae), 35° C., 40-48 h, RPMI1640
Procedure, shortened: (§2)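 Read-out is the minimum effective concentration: lowest compound level causing shorter hyphae than in DMSO controls, echinocandin-style. Broth microdilution used conidia or spores harvested from agar plates, cleared of mycelium and clumps, at a final 1-2×10^4 spores/mL in RPMI1640.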

[3] = tested on: Rhizomucor pusillus 46342; assay: as above; format: cell-based; conditions: minimum effective concentration (shortening of hyphae), 35° C., 40-48 h, RPMI1640
Procedure, shortened: as §2

A. fumigatus MYA3626 = assay: Antifungal susceptibility testing, CLSI broth microdilution (Example 496/497); format: cell-based, Aspergillus fumigatus; conditions: Aspergillus fumigatus, MYA3626; MEC, shortening of hyphae, 40 to 48 h; read-out: MIC or MEC A. fumigatus MYA3626
Source text: (§3) Isolates tested. C. neoformans strains H99, DUMC 118.00, DUMC 158.03 and C. gattii strains R272, and RSA-MW-3515 were obtained from Duke University. C. albicans 90028, A. fumigatus MYA3626, C. neoformans 14116, C. neoformans 76484 and the pathogenic Cryptococcus reference strains panel (ATCC MP-11) were obtained from American Type Culture Collection (ATCC, Manassas, Va., USA). The MP-11 panel consists of strains representing eight molecular types and three subtypes of C. neoformans and C. gattii.
(§4) Antifungal susceptibility testing. To establish antimicrobial activity, broth microdilution susceptibility testing was performed according to Clinical and Laboratory Standards Institute (CLSI) guidelines M27-A3 for yeasts and M38-A2 for molds. Compound 2 and analogs were first diluted in DMSO to obtain intermediate dilutions. These were further diluted in microtiter plates to obtain a final concentration of 2 to 0.002 μg/mL. 1 μl of DMSO was added to “No drug” control wells. The solutions were mixed on a plate shaker for 10 mins and plates incubated at 35° C. for 40 to 48 h (C. albicans, A. fumigatus) and 72 h (C. neoformans). The minimum concentration that led to 50% reduction in fungal growth as compared to the control (with the aid of a reading mirror) was determined as the minimum inhibitory concentration (MIC) for C. albicans and C. neoformans. The minimum concentration that led to shortening of hyphae as compared to hyphal growth in DMSO control wells was determined as the minimum effective concentration (MEC) for A. fumigatus (as read for echinocandins). The use of the MIC and MEC endpoints for Compound 2 against yeasts and molds, respectively has been described previously.

Cryptococcus gattii = assay: In vitro antifungal assay (Example IX), microdilution broth, MIC; format: cell-based; conditions: minimum inhibitory concentration (≥50% inhibition), 35° C., 72 h (Cryptococcus), RPMI1640
Procedure, shortened: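 MIC was determined from OD600 after 72 h at 35 °C for Cryptococcus, in RPMI1640 inoculated at 2.5×10^3 cells/mL. Compounds were tested as a 2-fold series from 2 to 0.0019 μg/mL final, added from DMSO intermediates at a 100-fold dilution.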

C. neoformans H99 = assay: Antifungal susceptibility testing, CLSI broth microdilution (Example 496/497); format: cell-based, Cryptococcus neoformans
Source text: as §3, §4

[4] = tested on: strains of C. neoformans and C. gattii; assay: Activity vs Cryptococcus, summary over the strains tested; format: cell-based, Cryptococcus neoformans and Cryptococcus gattii; conditions: C. neoformans H99 and C. gattii WM276 (Table 3)
Source text: The activity of Gwt1 inhibitors against susceptible and FLC non-susceptible/resistant strains.
as §3
Antifungal susceptibility testing. To establish antimicrobial activity, broth microdilution susceptibility testing was performed according to Clinical and Laboratory Standards Institute (CLSI) guidelines M27-A3 for yeasts and M38-A2 for molds. Compound 2 and analogs were first diluted in DMSO to obtain intermediate dilutions. These were further diluted in microtiter plates to obtain a final concentration of 2 to 0.002 μg/mL. 1 μl of DMSO was added to “No drug” control wells. The solutions were mixed on a plate shaker for 10 mins and plates incubated at 35° C. for 40 to 48 h (C. albicans, A. fumigatus) and 72 h (C. neoformans). The minimum concentration that led to 50% reduction in fungal growth as compared to the control (with the aid of a reading mirror) was determined as the minimum inhibitory concentration (MIC) for C. albicans and C. neoformans.

| Compound | MIC (Candida albicans 90028) [µg/mL] | MIC [1] [µg/mL] | minimal effective concentration [2] [µg/mL] | minimal effective concentration [3] [µg/mL] | MIC (A. fumigatus MYA3626) [µg/mL] | MIC (Cryptococcus gattii) [µg/mL] | MIC (C. neoformans H99; Cryptococcus neoformans, H99, 72 h, read-out: MIC C. neoformans H99) [µg/mL] | fold improved anti-C. neoformans H99 activity compared to Compound 2 (C. neoformans H99; from MIC values) [fold] | fold lower MIC values compared to Compound 2 vs Cryptococcus [4] [fold] | exposure, fold higher than the three other compounds (oral administration of prodrug with ABT) | AUC, fold higher than the other compounds (prodrugs administered IP) |
| --- | --- | --- | --- | --- | --- | --- | --- | --- | --- | --- | --- |
| Nc1ncccc1-c1cc(Cc2ccc(OCc3ccccc3)cc2)no1 [Ex. 185] | 0.1 to 1 (≈ 0.28 to 2.8 µM) | 0.01 to 0.1 (≈ 0.028 to 0.28 µM) | 0.1 to 1 | 0.1 to 1 | 0.016 (≈ 0.0448 µM) | 0.01 to 0.1 (≈ 0.028 to 0.28 µM) | – | – | – | – | – |
| Nc1ncccc1-c1cc(Cc2ccc(Oc3cccc(F)n3)cc2)no1 [Ex. 111] | 0.01 to 0.1 (≈ 0.0276 to 0.276 µM) | ≤ 0.01 | 0.01 to 0.1 | 0.1 to 1 | 0.063 (≈ 0.174 µM) | ≤ 0.01 | – | – | – | – | – |
| Nc1ncccc1-c1cc(Cc2ccc(Oc3cccc(F)n3)cc2)no1 | – | – | – | – | – | – | 0.008 (≈ 0.0221 µM) | 32 | 32 | approximately 2 fold | approximately 2 fold |
